The source of these data is patent publication US20030166922A1, “Novel cephalosporin compounds and process for preparing the same” (priority 2000, published 2003).

≈ marks a conversion by molar mass, not a printed value.

Experiment in all cases: Minimum Inhibitory Concentration (MIC), agar dilution, standard strains
(Agar dilution tests growth on a series of plates holding different concentrations.)

One experiment concerns S. epidermidis R005. The format is cell-based. To be noted: Table 1, Mueller-Hinton agar, 37° C., 20 hours; for MIC: Staphylococcus epidermidis, R005, read-out: Minimum Inhibitory Concentration (MIC), S. epidermidis R005. The procedure:
(§1) Minimum Inhibitory Concentration (MIC)
(§2) The effectiveness of the compound according to the present invention was determined by obtaining Minimum Inhibitory Concentration (MIC) of the compounds prepared by the above Examples (I-1 to I-33) and vancomycin, which is the known compound having a potent activity against gram-positive strains, as the control drug against the standard strains. Specifically, Minimum Inhibitory Concentration was obtained by diluting the test material with a double dilution method, dispersing them in Mueller-Hinton agar medium, inoculating each of the test strain having 10^7 cfu (colny forming unit) in an amount of 2:1 to the medium and then incubating them at 37° C. for 20 hours.

In the next experiment the test system is E. faecalis L239. Type of experiment: cell-based. The note with it: Table 1, Mueller-Hinton agar, 37° C., 20 hours; for MIC: Enterococcus faecalis, L239, read-out: Minimum Inhibitory Concentration (MIC), E. faecalis L239. The method, then: as §1, §2
Experiment [1] deals with Staphylococcus aureus giorgio. The format is cell-based. The note with it: Table 1, Mueller-Hinton agar, 37° C., 20 hours; for MIC: Staphylococcus aureus, read-out: Minimum Inhibitory Concentration (MIC), Staphylococcus aureus giorgio. The method, then: as §1, §2
The next experiment relates to S. aureus 241. The format is cell-based, Staphylococcus aureus. The note with it: Table 1, Mueller-Hinton agar, 37° C., 20 hours; for MIC: Staphylococcus aureus, 241, read-out: Minimum Inhibitory Concentration (MIC), S. aureus 241. The method, then: as §1, §2
Another experiment has as its system S. aureus 77. Type of experiment: cell-based, Staphylococcus aureus. To be noted: Table 1, Mueller-Hinton agar, 37° C., 20 hours; for MIC: Staphylococcus aureus, 77, read-out: Minimum Inhibitory Concentration (MIC), S. aureus 77. The method, then:
as §1, §2

Regarding `Nc1cc(SCSC2=C(C(=O)O)N3C(=O)[C@@H](NC(=O)CSc4cc(Cl)ccc4Cl)[C@H]3SC2)nc(O)n1` [Example I-4, (6R,7R)-3-({[(6-amino-2-hydroxy-4-pyrimidinyl)sulfanyl]methyl}sulfanyl)-7-({2-[(2,5-dic hlorophenyl)sulfanyl]acetyl}amino)-8-oxo-5-thia-1-azabicyclo[4.2.0]oct-2-ene-2-carboxylic acid], the MIC is 0.25 µg/mL (≈ 0.412 µM) with S. epidermidis R005; 0.5 µg/mL (≈ 0.824 µM) in the experiment on E. faecalis L239; under 0.008 µg/mL in experiment [1]; 4 µg/mL (≈ 6.59 µM) with S. aureus 241; 0.25 µg/mL (≈ 0.412 µM) in the experiment with S. aureus 77.

For the compound `Cn1c(N)n[n+]2c(SCSC3=C(C(=O)O)N4C(=O)[C@@H](NC(=O)CSc5cc(Cl)ccc5Cl)[C@H]4SC3)nc(N)cc12` [Example I-14, (6R,7R)-2,7-diamino-5-[({[2-carboxy-7-({2-[(2,5-dichlorophenyl)sulfany-1]acetyl}amino)-8-oxo-5-thia-1-azabicyclo[4.2.0]oct-2-en-3-yl]sulfanyl}methyl)sulfanyl]-1-methyl-1H,2H, 3H-[1,2,4]triazolo[1,5-c]pyrimidin-4-ium], the “Minimum Inhibitory Concentration (MIC), S. epidermidis R005” value in the experiment on S. epidermidis R005 is listed as 0.13 :g/ml. In addition, the “Minimum Inhibitory Concentration (MIC), E. faecalis L239” value with E. faecalis L239 is 0.13 :g/ml. For the same compound, the “Minimum Inhibitory Concentration (MIC), Staphylococcus aureus giorgio” value in experiment [1] is given as <0.008 :g/ml. In the experiment with S. aureus 241, the “Minimum Inhibitory Concentration (MIC), S. aureus 241” value is reported as 2 :g/ml. Further, in the experiment on S. aureus 77, the “Minimum Inhibitory Concentration (MIC), S. aureus 77” value was 0.25 :g/ml.

`Nc1nc(SCSC2=C(C(=O)O)N3C(=O)[C@@H](NC(=O)CSc4cc(Cl)ccc4Cl)[C@H]3SC2)nc2c1CCC2` [Example I-9, (6R,7R)-3-({[(4-amino-6,7-dihydro-5H-cyclopenta[d]pyrimidin-2-yl)sulfany-1]methyl}sulfanyl)-7-({2-[(2,5-dichlorophenyl)sulfanyl]acetyl}amino)-8-oxo-5-thia-1-aza-bicyclo[4.2.0]oct-2-ene-2-carboxylic acid]: the “Minimum Inhibitory Concentration (MIC), S. epidermidis R005” value in the experiment on S. epidermidis R005 is 0.25 :g/ml. In addition, in the experiment on E. faecalis L239, the “Minimum Inhibitory Concentration (MIC), E. faecalis L239” value is reported as 0.25 :g/ml. Also, the “Minimum Inhibitory Concentration (MIC), Staphylococcus aureus giorgio” value in experiment [1] was <0.008 :g/ml. Further, the “Minimum Inhibitory Concentration (MIC), S. aureus 241” value with S. aureus 241 is 4 :g/ml. Also, the “Minimum Inhibitory Concentration (MIC), S. aureus 77” value in the experiment on S. aureus 77 is given as 0.25 :g/ml.

Turning to `Nc1cc(N)[n+](N)c(SCSC2=C(C(=O)O)N3C(=O)[C@@H](NC(=O)CSc4cc(Cl)ccc4Cl)[C@H]3SC2)n1` [Example I-10, (6R,7R)-1,4,6-triamino-2-[({[2-carboxy-7-({2-[(2,5-dichlorophenyl)sulfany-1]acetyl}amino)-8-oxo-5-thia-1-azabicyclo[4.2.0]oct-2-en-3-yl]sulfanyl}methyl)sulfanyl]p-yrimidin-1-iu m], the “Minimum Inhibitory Concentration (MIC), S. epidermidis R005” value with S. epidermidis R005 is on record as 0.13 :g/ml. Moreover, in the experiment on E. faecalis L239, the “Minimum Inhibitory Concentration (MIC), E. faecalis L239” value is on record as 0.5 :g/ml. Further, the “Minimum Inhibitory Concentration (MIC), Staphylococcus aureus giorgio” value in experiment [1] is given as <0.008 :g/ml. Moreover, the “Minimum Inhibitory Concentration (MIC), S. aureus 241” value in the experiment on S. aureus 241 is given as 4 :g/ml. Further, the “Minimum Inhibitory Concentration (MIC), S. aureus 77” value in the experiment on S. aureus 77 is on record as 0.25 :g/ml.

With `Cc1c(N)nc([S+]([O-])CSC2=C(C(=O)O)N3C(=O)[C@@H](NC(=O)CSc4cc(Cl)ccc4Cl)[C@H]3SC2)[n+](N)c1N` (stereo partly drawn) [Example I-23, (6R,7R)-1,4,6-triamino-2-[({[(2-carboxy-7-({2-[(2,5-dichlorophenyl)sulfan-yl]acetyl}amino)-8-oxo-5-thia-1-azabicyclo[4.2.0]oct-2-en-3-yl)]sulfanyl}methyl)sulfin-yl]-5-methylpyri midin-1-ium], the “Minimum Inhibitory Concentration (MIC), S. epidermidis R005” value with S. epidermidis R005 is on record as 8 :g/ml. Besides, the “Minimum Inhibitory Concentration (MIC), E. faecalis L239” value in the experiment on E. faecalis L239 is 16 :g/ml. The “Minimum Inhibitory Concentration (MIC), Staphylococcus aureus giorgio” value in experiment [1] is given as 0.5 :g/ml. In addition, the “Minimum Inhibitory Concentration (MIC), S. aureus 241” value in the experiment on S. aureus 241 is >32 :g/ml. The “Minimum Inhibitory Concentration (MIC), S. aureus 77” value with S. aureus 77 was 8 :g/ml.

As for `Nc1cc(SCSC2=C(C(=O)O)N3C(=O)[C@@H](NC(=O)CSc4cc(Cl)ccc4Cl)[C@H]3SC2)nc(N)n1` [Example I-1, (6R,7R)-3-({[(2,6-diamino-4-pyrimidinyl)sulfanyl]methyl}sulfanyl)-7-({2-[(2,5-dichlorophenyl)sulfanyl]acetyl}amino)-8-oxo-5-thia-1-azabicyclo[4.2.0]oct-2-ene-2-carboxylic acid], the MIC was 0.063 µg/mL (≈ 0.104 µM) in the experiment on S. epidermidis R005; 0.25 µg/mL (≈ 0.413 µM) with E. faecalis L239; under 0.008 µg/mL in experiment [1]; 1 µg/mL (≈ 1.65 µM) in the experiment with S. aureus 241; 0.063 µg/mL (≈ 0.104 µM) in the experiment on S. aureus 77.

With `CSc1nc(C)cc(SCSC2=C(C(=O)O)N3C(=O)[C@@H](NC(=O)CSc4cc(Cl)ccc4Cl)[C@H]3SC2)n1` [Example I-22, (6R,7R)-7-({2-[(2,5-dichlorophenyl)sulfanyl]acetyl}amino)-3-[({[6-methyl-2-(methylsulfanyl)-4-pyrimidinyl]sulfanyl}methyl)sulfanyl]-8-oxo-5-thia-1-azabicyclo[4.2. 0]oct-2-ene-2-carboxylic acid], the MIC in the experiment with S. epidermidis R005 is 0.25 µg/mL (≈ 0.393 µM); in the experiment on E. faecalis L239 it was 0.25 µg/mL (≈ 0.393 µM); in experiment [1] it was under 0.008 µg/mL; in the experiment on S. aureus 241, 4 µg/mL (≈ 6.29 µM); in the experiment with S. aureus 77 it was 0.5 µg/mL (≈ 0.787 µM).

For the compound `Nc1cc(N)nc(SCSC2=C(C(=O)O)N3C(=O)[C@@H](NC(=O)CSc4cc(Cl)ccc4Cl)[C@H]3SC2)n1` [Example I-16, (6R,7R)-3-({[(4,6-diamino-2-pyrimidinyl)sulfanyl]methyl}sulfanyl)-7-({2-[(2,5-dichlorophenyl)sulfanyl]acetyl}amino)-8-oxo-5-thia-1-azabicyclo[4.2.0]oct-2-ene-2-carboxylic acid], the MIC is 0.063 µg/mL (≈ 0.104 µM) in the experiment with S. epidermidis R005; 0.5 µg/mL (≈ 0.826 µM) with E. faecalis L239; under 0.008 µg/mL in experiment [1]; 2 µg/mL (≈ 3.3 µM) in the experiment on S. aureus 241; 0.25 µg/mL (≈ 0.413 µM) in the experiment with S. aureus 77.

For the compound `Nc1ncnc(SCSC2=C(C(=O)O)N3C(=O)[C@@H](NC(=O)CSc4cc(Cl)ccc4Cl)[C@H]3SC2)c1N` [Example I-17, (6R,7R)-3-({[(5,6-diamino-4-pyrimidinyl)sulfanyl]methyl}sulfanyl)-7-({2-[(2,5-dichlorophenyl)sulfanyl]acetyl}amino)-8-oxo-5-thia-1-azabicyclo[4.2.0]oct-2-ene-2-carboxylic acid], the MIC with S. epidermidis R005 was found to be 0.25 µg/mL (≈ 0.413 µM); with E. faecalis L239 it was 0.5 µg/mL (≈ 0.826 µM); in experiment [1], 0.016 µg/mL (≈ 0.0264 µM); in the experiment with S. aureus 241 it was 2 µg/mL (≈ 3.3 µM); in the experiment with S. aureus 77, 0.13 µg/mL (≈ 0.215 µM).

Turning to “(6R,7R)-2,4-diamino-6-[({[2-carboxy-7-({2-[(2,5-dichlorophenyl)sulfany-1]acetyl}amino)-8-oxo-5-thia-1-azabicyclo[4.2.0]oct-2-en-3-yl]sulfanyl}methyl)sulfanyl]-1-ethyl-1,3,5-tria zine-1,3-diium [Example I-20]”, the “Minimum Inhibitory Concentration (MIC), S. epidermidis R005” value with S. epidermidis R005 was 0.5 :g/ml. Moreover, the “Minimum Inhibitory Concentration (MIC), E. faecalis L239” value in the experiment on E. faecalis L239 is reported as 0.5 :g/ml. In addition, the “Minimum Inhibitory Concentration (MIC), Staphylococcus aureus giorgio” value in experiment [1] is listed as <0.008 :g/ml. For the same compound, in the experiment on S. aureus 241, the “Minimum Inhibitory Concentration (MIC), S. aureus 241” value is reported as 8 :g/ml. In addition, the “Minimum Inhibitory Concentration (MIC), S. aureus 77” value in the experiment on S. aureus 77 is given as 1 :g/ml.

In the case of `Nc1nc(O)cc(SCSC2=C(C(=O)O)N3C(=O)[C@@H](NC(=O)CSc4cc(Cl)ccc4Cl)[C@H]3SC2)n1` [Example I-2, (6R,7R)-3-({[(2-amino-6-hydroxy-4-pyrimidinyl)sulfanyl]methyl}sulfanyl)-7-({2-[(2,5-dic hlorophenyl)sulfanyl]acetyl}amino)-8-oxo-5-thia-1-azabicyclo[4.2.0]oct-2-ene-2-carboxylic acid], the MIC is 0.063 µg/mL (≈ 0.104 µM) in the experiment on S. epidermidis R005; 0.25 µg/mL (≈ 0.412 µM) with E. faecalis L239; under 0.008 µg/mL in experiment [1]; 1 µg/mL (≈ 1.65 µM) in the experiment on S. aureus 241; 0.13 µg/mL (≈ 0.214 µM) with S. aureus 77.

In the case of `CNc1[n+](C)c(N)nc(SCSC2=C(C(=O)O)N3C(=O)[C@@H](NC(=O)CSc4cc(Cl)ccc4Cl)[C@H]3SC2)[n+]1N` [Example I-19, (6R,7R)-1,4-diamino-6-[({[2-carboxy-7-({2-[(2,5-dichlorophenyl)sulfany-1]acetyl}amino)-8-oxo-5-thia-1-azabicyclo[4.2.0]oct-2-en-3-yl]sulfanyl}methyl)sulfanyl]-3-methyl-2-(methylamino)-1,3,5-triazine-1,3-diium], the “Minimum Inhibitory Concentration (MIC), S. epidermidis R005” value in the experiment with S. epidermidis R005 was 2 :g/ml. Besides, the “Minimum Inhibitory Concentration (MIC), E. faecalis L239” value with E. faecalis L239 is 4 :g/ml. Also, the “Minimum Inhibitory Concentration (MIC), Staphylococcus aureus giorgio” value in experiment [1] was 0.063 :g/ml. Also, the “Minimum Inhibitory Concentration (MIC), S. aureus 241” value with S. aureus 241 was 32 :g/ml. The “Minimum Inhibitory Concentration (MIC), S. aureus 77” value in the experiment with S. aureus 77 is on record as 4 :g/ml.

In the case of `Nc1nc(O)cc(SCSC2=C(C(=O)O)N3C(=O)[C@@H](NC(=O)CSc4c(Cl)cccc4Cl)[C@H]3SC2)n1` [Example I-3, (6R,7R)-3-({[(2-amino-6-hydroxy-4-pyrimidinyl)sulfanyl]methyl}sulfanyl)-7-({2-[(2,6-dic hlorophenyl)sulfanyl]acetyl}amino)-8-oxo-5-thia-1-azabicyclo[4.2.0]oct-2-ene-2-carboxylic acid], the MIC is 0.13 µg/mL (≈ 0.214 µM) in the experiment with S. epidermidis R005; 0.5 µg/mL (≈ 0.824 µM) in the experiment with E. faecalis L239; under 0.008 µg/mL in experiment [1]; 8 µg/mL (≈ 13.2 µM) in the experiment with S. aureus 241; 0.25 µg/mL (≈ 0.412 µM) in the experiment on S. aureus 77.
